The results in this text go back to patent US10392383B2, “3-(1H-benzo[d]imidazol-2-yl)-1H-pyrazolo[4,3-b]pyridines and therapeutic uses thereof” (Samumed, LLC, priority 2015, dated 2019).

Structures are written as SMILES.

Holding throughout (type): cell-based
In one test the test system is SW480 colon cancer cells. Put plainly: Cell viability assay (CellTiter-Blue) in SW480 cells. Conditions: Homo sapiens, 96 h, four days; for inhibition at 10 µM: read-out: percent inhibition at 10 μM (given for EC50 of >10 μM); for EC50: CellTiter-Blue, 10 μM to 0.0045 μM. On the procedure: Representative compounds were screened using the following assay procedure to assess the effect on cell viability as described below.
Each compound was dissolved in DMSO as a 10 mM stock and used to prepare compound source plates. Serial dilution (1:3, 8-point dose-response curves from 10 μM to 0.0045 μM) and compound transfer was performed using the ECHO 550 (Labcyte, Sunnyvale, Calif.) into 96-well clear bottom, black-walled plates (Corning-Costar).
Approximately 2×10^3 SW480 colon cancer cells were seeded into each well and allowed to incubate in the presence or absence of compound for four days at 37° C./5% CO2. Eight replicates of DMSO-treated cells served as controls and cells treated with compound were performed in duplicate.
After incubation, 20 μL of CellTiter-Blue (Promega) was added to each well allowed to incubate for approximately 3 hours. This reagent was a buffered solution which contains resazurin, metabolically active cells were able to reduce rezarurin (blue) into resorufin (pink) which was highly fluorescent. This measured fluorescence was used as a readout for cell viability.
After incubation, the plates were read at Ex 560 nm Em 590 nm (Cytation 3, BioTek). Dose-response curves were generated and EC50 concentration values were calculated using non-linear regression curve fit in the GraphPad Prism (San Diego, Calif.) or Dotmatics' Studies Software (Bishops Stortford, UK). For EC50 of >10 μM, the percent inhibition at 10 μM is provided.

The test system of test [1] is Wnt activity (Sp5-Luc reporter, Wnt-responsive promoter) in SW480 colon carcinoma cells. Put plainly: Wnt activity screening assay: Sp5-Luc reporter gene assay in SW480 cells. The note with it: Homo sapiens; for inhibition at 10 µM: read-out: percent inhibition at 10 μM (given for EC50 of >10 μM); for EC50: overnight incubation, 10-point curve starting from 10 μM. From the text: The screening assay for Wnt activity is described as follows. Reporter cell lines can be generated by stably transducing cancer cell lines (e.g., colon cancer) or primary cells (e.g., IEC-6 intestinal cells) with a lentiviral construct that includes a Wnt-responsive promoter driving expression of the firefly luciferase gene.
SW480 colon carcinoma cells were transduced with a lentiviral vector expressing luciferase with a human Sp5 promoter consisting of a sequence of eight TCF/LEF binding sites. SW480 cells stably expressing the Sp5-Luc reporter gene and a hygromycin resistance gene were selected by treatment with 150 μg/mL of hygromycin for 7 days. These stably transduced SW480 cells were expanded in cell culture and used for all further screening activities. Each compound was dissolved in DMSO as a 10 mM stock and used to prepare compound source plates. Serial dilution (1:3, 10-point dose-response curves starting from 10 μM) and compound transfer was performed using the ECHO 550 (Labcyte, Sunnyvale, Calif.) into 384-well white solid bottom assay plates (Greiner Bio-One) with appropriate DMSO backfill for a final DMSO concentration of 0.1%. For Sp5-Luc reporter gene assays, the cells were plated at 4,000 cells/well in 384-well plates with medium containing 1% fetal bovine serum and incubated overnight at 37° C. and 5% CO2. Following incubation, 20 μl of BrightGlo luminescence reagent (Promega) was added to each well of the 384-well assay plates. The plates were placed on an orbital shaker for 2 min and then luminescence was quantified using the Envision (Perkin Elmer) plate reader. Readings were normalized to DMSO only treated cells, and normalized activities were utilized for EC50 calculations using the dose-response log (inhibitor) vs. response-variable slope (four parameters) nonlinear regression feature available in GraphPad Prism 5.0 (or Dotmatics). For EC50 of >10 μM, the percent inhibition at 10 μM is provided.

The test system of test [2] is primary human fibroblasts derived from IPF patients (LL29 cells) treated with TGF-β1. Put plainly: Inhibition of the fibrotic process: αSMA staining in TGF-β1-treated LL29 fibroblasts. Conditions: Fibroblast; for EC50: 96 h, LL29 fibroblasts treated with TGF-β1 (20 ng/mL), 4 days, Table 4; for inhibition at 10 µM: LL29 fibroblasts treated with TGF-β1, Table 4, read-out: percent inhibition at 10 μM (given in parentheses for EC50 >10 μM). The text has this: Representative compounds were screened using primary human fibroblasts (derived from IPF patients) treated with TGF-β1 to determine their ability to inhibit the fibrotic process.
Human Fibroblast Cell Culture: Primary human fibroblasts derived from IPF patients (LL29 cells) [^1Xiaoqiu Liu, et. al., “Fibrotic Lung Fibroblasts Show Blunted Inhibition by cAMP Due to Deficient cAMP Response Element-Binding Protein Phosphorylation”, Journal of Pharmacology and Experimental Therapeutics (2005), 315(2), 678-687; ^2Watts, K. L., et. al., “RhoA signaling modulates cyclin D1 expression in human lung fibroblasts; implications for idiopathic pulmonary fibrosis”, Respiratory Research (2006), 7(1), 88] were obtained from American Type Culture Collection (ATCC) and expanded in F12 medium supplemented with 15% Fetal Bovine Serum and Penicillin/Streptomycin.
Compound Screening: Each compound was dissolved in DMSO as a 10 mM stock and used to prepare compound source plates. Serial dilution (1:2, 11-point dose-response curves from 10 μM to […]) and compound transfer was performed using the ECHO 550 (Labcyte, Sunnyvale, Calif.) into 384-well clear bottom assay plates (Greiner Bio-One) with appropriate DMSO backfill for a final DMSO concentration of 0.1%. LL29 cells are plated at 1,500 cells/well in 80 μL/well F12 medium supplemented with 1% Fetal Bovine Serum. One hour after addition of the cells, TGF-β1 (Peprotech; 20 ng/mL) was added to the plates to induce fibrosis (ref. 1 and 2 above). Wells treated with TGF-β1 and containing DMSO were used as controls. Cells were incubated at 37° C. and 5% CO2 for 4 days. Following incubation for 4 days, SYTOX green nucleic acid stain (Life Technologies [Thermo Fisher Scientific]) was added to the wells at a final concentration of 1 μM and incubated at room temperature for 30 min. Cells were then fixed using 4% formaldehyde (Electron Microscopy Sciences), washed 3 times with PBS followed by blocking and permeabilization using 3% Bovine Serum Albumin (BSA; Sigma) and 0.3% Triton X-100 (Sigma) in PBS. Cells were then stained with antibody specific to α-smooth muscle actin (αSMA; Abcam) (ref. 1 and 2 above) in 3% Bovine Serum Albumin (BSA; Sigma) and 0.3% Triton X-100 (Sigma) in PBS, and incubated overnight at 4° C. Cells were then washed 3 times with PBS, followed by incubation with Alexa Flor-647 conjugated secondary antibody (Life Technologies [Thermo Fisher Scientific]) and DAPI at room temperature for 1 hour. Cells were then washed 3 times with PBS and plates were sealed for imaging. αSMA staining was imaged by excitation at 630 nm and emission at 665 nm and quantified using the Compartmental Analysis program on the CellInsight CX5 (Thermo Scientific). Dead or apoptotic cells were excluded from analysis based on positive SYTOX green staining. % of total cells positive for αSMA were counted in each well and normalized to the average of 11 wells treated with TGF-β1 on the same plate using Dotmatics' Studies Software. The normalized averages (fold change over untreated) of 3 replicate wells for each compound concentration were used to create dose-responses curves and EC50 values were calculated using non-linear regression curve fit in the Dotmatics' Studies Software. For EC50 of >10 μM, the percent inhibition at 10 μM is provided.

Usually inhibition stands for the change of the read-out against control, counted positive when it falls. For orientation: EC50 means the concentration needed to bring the measured effect to its halfway point.

For `Cc1cn(-c2cccc3[nH]c(-c4n[nH]c5ccc(-c6cncc(OCCN(C)C)c6)nc45)nc23)cn1` [Compound 627, N,N-Dimethyl-2-((5-(3-(4-(4-methyl-1H-imidazol-1-yl)-1H-benzo[d]imidazol-2-yl)-1H-pyrazolo[4,3-b]pyridin-5-yl)pyridin-3-yl)oxy)ethan-1-amine], the values for the inhibition at 10 µM (with SW480 colon cancer cells; in test [1]) were 14.1% and 38.1%, respectively. Further, the 50% effective concentration (EC50) in the test with SW480 colon cancer cells is > 10 µM; in test [1] it was > 10 µM; in test [2], 6.76 µM.
With `CN1CCN(c2cccc3[nH]c(-c4n[nH]c5ccc(-c6cnccn6)nc45)nc23)CC1` [Compound 648, 3-(4-(4-Methylpiperazin-1-yl)-1H-benzo[d]imidazol-2-yl)-5-(pyrazin-2-yl)-1H-pyrazolo[4,3-b]pyridine], the EC50 is 9.1 µM with SW480 colon cancer cells, > 10 µM in test [1] and > 10 µM in test [2]. Moreover, the inhibition at 10 µM in test [1] was found to be 37.9%; in test [2], 0%.
Consider `NC1CN(c2cncc(-c3ccc4[nH]nc(-c5nc6c(-c7ccc(Cl)s7)cccc6[nH]5)c4n3)n2)C1` [Compound 1068, 1-(6-(3-(4-(5-Chlorothiophen-2-yl)-1H-benzo[d]imidazol-2-yl)-1H-pyrazolo [4,3-b]pyridin-5-yl)pyrazin-2-yl)azetidin-3-amine], for which the values for the EC50 (in the test on SW480 colon cancer cells; in test [1]; in test [2]) were 0.953 µM, 1.24 µM and 1.71 µM, respectively.
In the case of `CCCC(=O)Nc1cncc(-c2ccc3[nH]nc(-c4nc5c(-c6ccncc6)cccc5[nH]4)c3n2)c1` [Compound 129, N-(5-(3-(4-(Pyridin-4-yl)-1H-benzo[d]imidazol-2-yl)-1H-pyrazolo[4,3-b]pyridin-5-yl)pyridin-3-yl)butyramide], the inhibition at 10 µM (with SW480 colon cancer cells; in test [1]; in test [2]) was 0% each time. Also, the EC50 (with SW480 colon cancer cells; in test [1]; in test [2]) was > 10 µM each time.
For `COc1cccc(-c2cccc3[nH]c(-c4n[nH]c5ccc(-c6cncc(O)c6)nc45)nc23)c1` [Compound 1030, 5-(3-(4-(3-Methoxyphenyl)-1H-benzo[d]imidazol-2-yl)-1H-pyrazolo[4,3-b]pyridin-5-yl)pyridin-3-ol], the concentration giving a half-maximal response (EC50) in the test on SW480 colon cancer cells came to 1.01 µM; in test [1], 0.98 µM; in test [2] it was 0.915 µM.
On the same counts, the results for `CN(C)CCOc1cncc(-c2ccc3[nH]nc(-c4nc5c(-c6cccs6)cccc5[nH]4)c3n2)c1` [Compound 707, N,N-Dimethyl-2-((5-(3-(4-(thiophen-2-yl)-1H-benzo[d]imidazol-2-yl)-1H-pyrazolo[4,3-b]pyridin-5-yl)pyridin-3-yl)oxy)ethan-1-amine] are 1.54 µM, 4.19 µM and 1.35 µM.
On the same counts, the results for `Fc1cccc(-c2cccc3[nH]c(-c4n[nH]c5ccc(-c6cncc(CN7CCC(F)(F)C7)c6)nc45)nc23)c1` [Compound 26, 5-(5-((3,3-Difluoropyrrolidin-1-yl)methyl)pyridin-3-yl)-3-(4-(3-fluorophenyl)-1H-benzo[d]imidazol-2-yl)-1H-pyrazolo[4,3-b]pyridine] are 5.82 µM, 2.1 µM and 1.65 µM.
As to `Cc1ccncc1-c1ccc2[nH]nc(-c3nc4c(-c5ccncc5)cccc4[nH]3)c2n1` [Compound 117, 5-(4-Methylpyridin-3-yl)-3-(4-(pyridin-4-yl)-1H-benzo[d]imidazol-2-yl)-1H-pyrazolo[4,3-b]pyridine], the inhibition at 10 µM in the test with SW480 colon cancer cells turned out to be 16.9%; in test [1], 44.9%; in test [2] it was 0%. The concentration giving a half-maximal response (EC50) (in the test on SW480 colon cancer cells; in test [1]; in test [2]) was > 10 µM throughout.
In the case of `c1ccc(COc2cncc(-c3ccc4[nH]nc(-c5nc6c(-c7ccncc7)cccc6[nH]5)c4n3)c2)cc1` [Compound 582, 5-(5-(Benzyloxy)pyridin-3-yl)-3-(4-(pyridin-4-yl)-1H-benzo[d]imidazol-2-yl)-1H-pyrazolo[4,3-b]pyridine], the inhibition at 10 µM with SW480 colon cancer cells is 28.5%; in test [1], 39.1%. The concentration giving a half-maximal response (EC50) in the test on SW480 colon cancer cells was > 10 µM; in test [1] it was > 10 µM; in test [2] it was 1.42 µM.
Take `O=C(CC1CCNCC1)Nc1cncc(-c2ccc3[nH]nc(-c4nc5c(-c6ccccn6)cccc5[nH]4)c3n2)c1` [Compound 593, 2-(Piperidin-4-yl)-N-(5-(3-(4-(pyridin-2-yl)-1H-benzo[d]imidazol-2-yl)-1H-pyrazolo[4,3-b]pyridin-5-yl)pyridin-3-yl)acetamide]: the inhibition at 10 µM is 13.6% with SW480 colon cancer cells and 26.6% in test [1]. Also, the EC50 in the test with SW480 colon cancer cells is > 10 µM; in test [1] it was > 10 µM; in test [2], 1.37 µM.
In the case of `Cn1cc(-c2ccc3[nH]nc(-c4nc5c(-c6ccc(F)cc6)cccc5[nH]4)c3n2)c(CO)n1` [Compound 1129, (4-(3-(4-(4-Fluorophenyl)-1H-benzo[d]imidazol-2-yl)-1H-pyrazolo[4,3-b]pyridin-5-yl)-1-methyl-1H-pyrazol-3-yl)methanol], the figures for the 50% effective concentration (EC50) (with SW480 colon cancer cells; in test [1]; in test [2]) were 3.01 µM, 2.2 µM and 1.2 µM, respectively.
